{"source": "patent US20260257186A1", "about": "“Tunable Structure of Biodegradable Silk-Based Microcapsules for Soluble and Insoluble Payload Delivery” (MASSACHUSETTS INSTITUTE OF TECHNOLOGY, priority 2021, published 2026)", "key": {"[1]": {"assay": "Release of SF/Saf microcapsules, released Saf by UV-Vis", "format": "physicochemical", "details": "without silk encapsulation; 10% Pluronic PE 10500 aqueous suspension; FIG. 5C", "procedure": "Release of SF/Saf microcapsules: around 5 mg of different SF/Saf microcapsules were dispersed in 50 mL of 10% Pluronic PE 10500 aqueous suspension, wrapped in Al foil and under 20 rpm mind shaking. After certain time intervals, 0.75 mL of suspension was taken for UV-Vis measurement to determine the concentration of released Saf. The characteristic UV absorption peak position of Saf is around 271 nm.\nAll release and degradation tests were run in triplicates, and the standard errors for the analytical results were used to generate and present error bars.\nThe surface morphologies of microcapsules structures were investigated using a Zeiss Merlin High-resolution SEM operating at 0.8 kV for low-, medium- and high-resolution imaging. The elemental analysis was carried out on Zeiss Merlin SEM with energy-dispersive X-ray spectroscopy (EDS). Optical images of SF/DA emulsions were taken with a Nikon Eclipse TE2000-E optical microscope. The concentrations of released VC and Saf were determined by ultraviolet-visible (UV-Vis) spectroscopy on a VWR UV-1600PC spectrophotometer. Chemical structures of SF were studied with Fourier transform infrared (FTIR) spectroscopy from a Perkin Elmer Spectrum 65 spectrometer with the attenuated total reflection (ATR) accessory. […] The data was analyzed on volume-based distribution."}, "[2]": {"details": "cited from earlier work"}}, "data": [{"compound": "CC(C)N(C)S(=O)(=O)NC(=O)c1cc(-n2c(=O)cc(C(F)(F)F)n(C)c2=O)c(F)cc1Cl", "note": "[Saf, Saflufenacil]", "values": [{"measurement": "burst release of Saf", "setting": "[1]", "value": "~25", "unit": "%"}, {"measurement": "solubility in organic solvents", "setting": "[2]; organic solvents", "value": "limited"}, {"measurement": "thermal decomposition T", "setting": "[2]; solid powder", "value": "around 236 °C"}, {"measurement": "solubility in water", "setting": "[2]; water", "value": 2000, "unit": "µg/mL"}]}]}
